Measurements: PubChem BioAssay (NCI)
“And” between values parts separate entries of the source, which are not always exact repeats. Equal values may be shown once.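 Cells were grown in 96-well plates and exposed to each compound for 48 hours at five concentrations; endpoints were interpolated linearly between bracketing concentrations, or set to the highest concentration if not reached. GI50 marks 50% less growth. TGI is the concentration that stops growth completely.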

Legend:
Test in all cases: NCI tumour cell line growth inhibition, 48 h
HL-60(TB) leukemia = system: HL-60(TB) leukemia
NCI-H23 lung = system: NCI-H23 lung
OVCAR-3 ovarian = system: OVCAR-3 ovarian
SK-MEL-2 melanoma = system: SK-MEL-2 melanoma
SK-MEL-28 melanoma = system: SK-MEL-28 melanoma
SNB-19 CNS = system: SNB-19 CNS
SNB-75 CNS = system: SNB-75 CNS
SR leukemia = system: SR leukemia
T-47D breast = system: T-47D breast
U251 CNS = system: U251 CNS

SMILES	GI50 (HL-60(TB) leukemia) [µM]	TGI (HL-60(TB) leukemia) [µM]	GI50 (NCI-H23 lung)	TGI (NCI-H23 lung)	GI50 (OVCAR-3 ovarian)	TGI (OVCAR-3 ovarian)	GI50 (SK-MEL-2 melanoma)	TGI (SK-MEL-2 melanoma)	GI50 (SK-MEL-28 melanoma)	TGI (SK-MEL-28 melanoma)	GI50 (SNB-19 CNS)	TGI (SNB-19 CNS)	GI50 (SNB-75 CNS) [µM]	TGI (SNB-75 CNS)	GI50 (SR leukemia) [µM]	TGI (SR leukemia) [µM]	GI50 (T-47D breast)	TGI (T-47D breast) [µM]	GI50 (U251 CNS)	TGI (U251 CNS)
NC(=N\N=C/c1ccc(Cl)cc1Cl)/C(N)=N\N=C/c1ccc(Cl)cc1Cl	> 100	> 100	39.3 µM	> 100 µM	12.3 µM	> 73.8 µM	> 57.1 µM	> 93.6 µM	> 100 µM	> 100 µM	26.8 µM	> 100 µM	1.65	13.4 µM	> 100	> 100	1.35 µM	> 76.4	1.02 µM	19 µM
CCCCCCc1cc2cc(-c3csc(/C=C/c4ccccc4)n3)c(=O)oc2cc1O	4.79	30.4	3.09 µM	10.1 µM	3.52 µM	9.98 µM	18.1 µM	41.1 µM	10.6 µM	24.9 µM	10.3 µM	34.3 µM	11.5	26.5 µM	2.88	9.69	13.9 µM	> 100	2.91 µM	10.5 µM
C=C(CN1CCN(c2ccccc2C(F)(F)F)CC1)c1ccc(C(=O)Nc2ccccc2N)cc1	0.037	0.756	5.93 µM	> 100 µM	5.92 µM	38.3 µM	10.3 µM	> 95.1 µM	10.4 µM	> 100 µM	24.4 µM	> 100 µM	2.82	20.1 µM	2.36	5.95	7.67 µM	> 100	4.64 µM	> 68.1 µM
O=C(/C=C/c1cccc(S(=O)(=O)Nc2ccccc2)c1)NO		29.8	0.707 µM and 0.112 µM	7.47 µM and 2.69 µM	0.565 µM and 0.512 µM	4.16 µM and 3.76 µM	2.34 µM and 5.73 µM	15.6 µM and > 71.2 µM	1 µM and 1.55 µM	10.3 µM and 51.8 µM	0.841 µM and 0.835 µM	19.5 µM and 41.5 µM		58.1 µM and > 54 µM		22.8	0.227 µM and 0.144 µM		0.597 µM and 0.496 µM	4.38 µM and 10.7 µM
O=Cc1ccc(-c2ccc(-c3ccc(C=O)o3)[se]2)o1	> 100	> 100	56.3 µM	> 100 µM	> 100 µM	> 100 µM	> 100 µM	> 100 µM	> 100 µM	> 100 µM	> 100 µM	> 100 µM	29.6	> 100 µM	> 100	> 100	> 100 µM	> 100	44.8 µM	> 100 µM
COc1cc(/C=C/C(=O)c2c(C)nc3ccccc3c2C)ccc1OCCCCOc1cc2c(cc1OC)C(=O)N1CCC[C@H]1C=N2	0.196	0.514	0.396 µM	1.42 µM	0.217 µM	0.631 µM	0.414 µM	0.978 µM	0.214 µM	0.647 µM	0.872 µM	2.57 µM	0.334	0.929 µM	0.325	> 100	0.333 µM	1.36	0.305 µM	0.955 µM
CCOc1cc(/C=C/C(=O)C(C(=O)/C=C/c2ccc(OC(=O)CNc3nnc(C)s3)c(OCC)c2)C(=O)CNc2nnc(C)s2)ccc1OC(=O)CNc1nnc(C)s1	0.554	3.47	1.97 µM	5.58 µM	1.24 µM	4.85 µM	2.02 µM	5 µM	1.45 µM	2.92 µM	2.52 µM	11.1 µM	2.93	9.77 µM	0.236	1.45	3.4 µM	35.6	0.976 µM	2.89 µM
NS(=O)(=O)c1ccc(N=C2C(=O)Nc3ccccc32)cc1		> 100		> 100 µM		> 100 µM		> 100 µM		> 100 µM		> 100 µM		> 100 µM		> 100		> 100		> 100 µM
COc1ccc(C2CC(c3ccc4ccccc4c3)=NN2c2nc(O)c(C3=c4cc(OC)ccc4=NC3=O)s2)cc1 (stereo unspecified)	> 57.9	> 100	0.0348 µM	0.191 µM	0.0569 µM	0.17 µM	0.178 µM	0.497 µM	0.0932 µM	0.334 µM	0.0897 µM	0.592 µM	0.0779	0.445 µM	0.0531	2.92	0.0401 µM	0.184	0.0323 µM	0.0975 µM
COc1ncc(-c2ccc3nccc(C#CCN4CCN(S(C)(=O)=O)CC4)c3c2)cc1NS(=O)(=O)c1ccc(F)cc1F	0.0257	1.81	0.287 µM	5.9 µM	0.0466 µM	0.982 µM	0.116 µM	1.13 µM	0.0256 µM	0.843 µM	0.299 µM	2.11 µM	0.0106	0.152 µM	0.222	27	< 0.01 µM	0.0178	0.211 µM	1.75 µM
O=C(Nc1ccc(I)cc1)c1cccc([N+](=O)[O-])c1O	2.96	9.32	2.26 µM	8 µM	2.9 µM	> 100 µM	2.6 µM	8.79 µM	4.63 µM	> 100 µM	3.68 µM	> 100 µM	2.77	38.6 µM	2.87	19.8	2.98 µM	12.6	3.39 µM	> 100 µM
FC(F)(F)c1ccc(-c2ncc(-c3ccc(C(F)(F)F)cc3)c(NCc3cc(C(F)(F)F)cc(C(F)(F)F)c3)n2)cc1	4.79	36.2	3.24 µM	23.8 µM	3.39 µM	16 µM	2.84 µM	8.93 µM	5.85 µM	> 100 µM	3.49 µM	> 100 µM	4.17	73 µM	5.07	> 100	3.12 µM	29	3.57 µM	> 100 µM
